Data from patent US20040253190A1, “Breath Freshening and Oral Cleansing Product Using Citral” (priority 2002, published 2004).
Converted amounts (≈) assume the structure as drawn.

Key:
Assay type in all cases: cell-based
[1] = system: Porphyromonas gingivalis; experiment: MIC (Minimum Inhibitory Concentration) study, 96 well microtiter plate; settings: P. gingivalis, 5×10^5 CFU/ml, 37° C., turbidity at 660 nm after 48 hours
Protocol: (§1) In vitro tests were conducted with a gram positive supragingival plaque bacterium, Streptococcus mutans. In addition, two subgingival plaque bacteria associated with oral malodor were tested, Porphyromonas gingivalis and Fusobacterium nucleatum. The MIC (Minimum Inhibitory Concentrations) study protocol is as follows. Chlorhexidine was used as a positive control and sterile water was used as a negative control. Citral was suspended in 10% methanol with 3.8% Tween 80. […] 96 well microtiter plates were used for this study. Each well contained 5×10^5 colony forming units/ml of bacteria, serially diluted agents and bacterial growth medium. All bacterial cultures were incubated at 37° C. and stationary. Bacterial growth was estimated spectrophotometrically at 660 nm, after 48 hours. The MIC for each test bacteria was defined as the minimum concentration of test compound limiting turbidity to<absorbance at 660 nm.

[2] = system: Fusobacterium nucleatum; experiment: as above; settings: F. nucleatum, 5×10^5 CFU/ml, 37° C., turbidity at 660 nm after 48 hours
Protocol: as §1

[3] = system: Porphyromonas gingivalis; experiment: MBC (Minimum bactericidal concentration), plating on blood agar; settings: P. gingivalis, lowest concentration killing at least 99.9% of initial inoculum, plates 48 hours at 37° C.
Protocol: as §1, with “[…]. The MBC (Minimum bactericidal concentrations) were determined using the 96 well microtiter plate serial dilutions as described above for MIC studies. Serial dilution of cultures in wells showing no visible growth were performed and 10 microliters of culture were plated in triplicate on blood agar plates. Viable colonies were scored after incubation of the plates for 48 hours at 37° C. For each test bacterium, the number of CFU/ml were determined in the initial inoculum. The MBC was defined as the lowest concentration of a test compound that killed at least 99.9% of the cells present in the initial inoculum.” for “nm.”

[4] = system: Fusobacterium nucleatum; experiment: as above; settings: F. nucleatum, lowest concentration killing at least 99.9% of initial inoculum, plates 48 hours at 37° C.
Protocol: as §1, with “[…]. The MBC (Minimum bactericidal concentrations) were determined using the 96 well microtiter plate serial dilutions as described above for MIC studies. Serial dilution of cultures in wells showing no visible growth were performed and 10 microliters of culture were plated in triplicate on blood agar plates. Viable colonies were scored after incubation of the plates for 48 hours at 37° C. For each test bacterium, the number of CFU/ml were determined in the initial inoculum. The MBC was defined as the lowest concentration of a test compound that killed at least 99.9% of the cells present in the initial inoculum.” for “nm.”

[5] = system: Streptococcus mutans; experiment: MIC (Minimum Inhibitory Concentration) study, 96 well microtiter plate; settings: S. mutans, 5×10^5 CFU/ml, 37° C., turbidity at 660 nm after 48 hours
Protocol: as §1

**Q.** For [H]/N=C(\N/C(=N/[H])NCCCCCCNC(=N)NC(=N)Nc1ccc(Cl)cc1)Nc1ccc(Cl)cc1 [Cholorhexidine, Chlorhexidine, reference compound], which MIC [1] is on record?
**A.** 1.25 µg/mL (≈ 2.47 µM)

**Q.** And the MIC [2]?
**A.** 1.25 µg/mL (≈ 2.47 µM)

**Q.** What about the MBC [3] of the same molecule?
**A.** 1.25 µg/mL (≈ 2.47 µM)

**Q.** And the MBC [4]?
**A.** 1.25 µg/mL (≈ 2.47 µM)

**Q.** For CC(C)=CCCC(C)=CC=O [citral], which MIC [1] is on record?
**A.** 62.5 µg/mL (≈ 411 µM)

**Q.** And the MIC [5]?
**A.** 500 µg/mL (≈ 3280 µM)

**Q.** What about the MIC [2] of the same molecule?
**A.** 15.6 µg/mL (≈ 102 µM)

**Q.** And the MBC [3]?
**A.** 125 µg/mL (≈ 821 µM)

**Q.** What about the MBC [4] of the same molecule?
**A.** 31.3 µg/mL (≈ 206 µM)
